Source: US12433892B2, “Compositions and methods of treatment for neurological disorders comprising depression” (Gliapharm SA, priority 2018, dated 2025)
Structures can show the parent of a compound that is named as a salt.

Columns and labels:
primary astrocytes = assay: Intracellular glycogen quantification, Example 2; type: cell-based, mouse; conditions: 10 μM, 3 h (GP-0157: 0.1, 1, 10 μM)
Experimental: To assess for the effect of the compounds of the invention, those were tested in primary astrocytes, as described below. Secretion of lactate was measured directly in the extracellular medium, and indirectly through the acidification of extracellular medium using extracellular pH sensor SNARE-5F-(AND-6)-CAR (SNARF5). Glucose uptake was measured by quantification 2-deoxyglucose in the cell. Cell Cultures Primary cultures of cerebrocortical astrocytes were obtained from 1 to 2-day-old OF1 mouse pups (Charles River). Briefly, cortices were isolated and minced in small pieces under a dissecting microscope. The cells were incubated for 30 min at 37° C. in a solution containing 20 U/ml papain, 1 mM L-cysteine and 10 kU/ml DNase I. After dissociation, papain activity was stopped by the addition of fetal calf serum (FCS). Single-cell suspension was then obtained by mechanical dissociation, which consisted in cells trituration in a DMEM D7777 medium supplemented with 44 mm NaHCO3, 10 ml/L antibiotic/antimycotic solution and 10% FCS. The cells were seeded at an average density of ˜10'000 cells/cm2 on poly-D-lysine coated 96- or 12-well culture plates, depending on their use, and grown in DMEM D7777 medium supplemented with 44 mm NaHCO3, 10 ml/L antibiotic/antimycotic solution and 10% FCS at 37° C. in a humidified atmosphere containing 5% CO2/95% air. Culture medium was renewed twice a week. Cells were stimulated and harvested between DIV14 and DIV17, when confluence and cell growth were optimal. Extracellular Medium Acidification (SNARF5) Secretion of lactate was measured indirectly through the acidification of extracellular medium using extracellular pH sensor […] (SNARF5). After washing cells twice with stimulation medium (DMEM (D5030, Sigma), 1 mM NaHCO2, and 5 mM Glucose, pH 7.4) at 37° C., cells were stimulated with compounds at a final concentration ranging from 10 nM to 30 μM in 50 μl per well of stimulation medium supplemented with 10 μM of SNARF5 (Life Technologies Corporation). Each compound was tested in two different plates for duplicates. After 90 min stimulation, fluorescence was read at exc. (excitation) 480 nm/emm. (emission) 580 nm and at exc 480 nm/emm. 630 nm. The ratio of fluorescence between 630 nm and 580 emission values, which is proportional to extracellular pH, was calculated. In each plate, 8 wells were used for negative controls (DMSO 0.1%) and 8 wells were used for positive controls (CCCP 2 μM in DMSO). The extracellular medium acidification in primary mouse astrocytes treated with GP-A1 was quantified (FIG. 13). Extracellular medium acidification was measured over a period of 1.5 h and 3 h. […] Extracellular Lactate Quantification Secretion of L-lactate was measured in the extracellular medium of 96-well plated astrocytes after 90 min stimulation (at 37° C., in 5% CO2/95% air conditions) with Vehicle (DMSO), the compounds of the invention (100 nM to 100 μM) or positive control. […] Stimulation medium was composed of D5030 medium complemented with 5 mM D-glucose and 44 mM sodium bicarbonate, pH 7.2. To quantify lactate concentrations in the extracellular medium, 200 μl of a 0.2M Glycine-semicarbazide buffer (pH 10) containing 3 mM NAD and 14 U/ml LDH was added to each well of a 96-well plate containing 30 μl aliquots of extracellular medium. Samples were incubated at 37° C. for 1 h. Fluorescence intensity (340 nm excitation/450 nm emission), which represents the amount of NADH produced, was measured, and lactate concentration values were determined relative to a standard curve of L-lactate concentrations. The release of lactate from primary mouse astrocytes treated with GP-A1 was quantified (FIG. 5A and FIG. 14). Accumulation of lactate in the extracellular medium was measured over a period of 1.5 h. […] Intracellular Glycogen Quantification Astrocytes grown on 12-well plates were used for intracellular glycogen quantifications. […]

[1] = test system: cerebral extracellular lactate; assay: In vivo pharmacodynamics: lactate biosensors in cortex; parameters: species or system mouse
Experimental: Extracellular levels of lactate were monitored in vivo using lactate biosensors (Pinnacle Technology), according to the manufacturer's instructions. Cannulae were surgically implanted in mice cerebral cerebral motor cortex areas M1/M2 (coordinates: +1.94 mm (to bregma), lateral −1.4 mm (to mideline), ventral −1.0 mm (to dura)) 5-7 days before administration of the compounds. Drugs were administered per os as previously described, and cerebral levels of extracellular lactate were dynamically recorded for 6 hours. Mice were administered vehicle alone first, followed 3 hours later by vehicle or drug (10 or 100 mg/kg). Area Under the Curve (AUC) quantifying the fluctuations of extracellular lactate concentrations for each of the compound tested was calculated using Graphad Prism and the ratio of AUC after drug over Vehicle administration was calculated. Groups of 8 male mice were used for each condition.
To measure biological effect of lead molecules in vivo in the brain, lactate levels were quantified after administration of the drug by using lactate biosensors implanted in the cortex of freely moving mice.

[2] = In vivo pharmacokinetics (PFC microdialysis and plasma); parameters: species or system mouse; conditions: after gavage with 100 mg/kg
Experimental: Mice were anesthetized using isoflurane (2% and 800 mL/min O2). Before surgery, Finadyne (1 mg/kg, s.c.) was administered for analgesia during surgery and the post-surgical recovery period. A mixture of bupivacaine and epinephrine was used for local anesthesia of the incision site of the periost of the skull.
The animals were placed in a stereotaxic frame (Kopf instruments, USA). MetaQuant microdialysis probes with a 3 mm exposed polyacrylonitrile membrane (MQ-PAN 3/3, Brainlink, the Netherlands) were implanted into the prefrontal cortex (coordinates for the tip of the probe: AP=+2.0 mm (to bregma), lateral=−0.7 mm (to midline), ventral=−3.3 mm (to dura), with the incisor bar set at 0.0 mm and an angle of 8°). All coordinates were based on “The mouse brain in stereotaxic coordinates” by Paxinos and Franklin (2004). The probes were attached to the skull with a stainless steel screw and dental cement (Fuji Plus Capsules, Henry Schein, the Netherlands).
In the same surgical procedure, a catheter was placed into the jugular vein to accommodate blood sampling. An indwelling cannula was inserted into the right jugular vein, and exteriorized through an incision on top of the skull. The end of the jugular vein catheter was fixed in position with dental acrylic cement and attached to the skull with two stainless steel screws.
Experiments were initiated one day after surgery. The MetaQuant microdialysis probes were connected with flexible PEEK tubing (Western Analytical Products Inc. USA; PK005-020) to a microperfusion pump (CMA Microdialysis) and perfused with aCSF+0.2% BSA at a flow rate of 0.12 μL/min. Ultrapurified water+0.2% BSA was used as the carrier flow at a flow rate of 0.80 μL/min. After a minimum of 1.5 hours of prestabilization, microdialysis samples were collected in 30 minute intervals. Samples were collected into polystyrene microvials (Microbiotech/se AB, Sweden; 4001029) using an automated fraction collector (UV 8301501, TSE, Univentor, Malta). After collection of three basal samples, at t=0 minutes, drug of interest was administered per os. Eight additional samples were collected after compound administration. All samples were stored at −80° C. until off-line analysis.
In parallel, blood samples (50 μL) were taken from the jugular vein through the cannula. These samples were collected at specified intervals into vials containing 5 μL heparin (500 IE/mL in saline). The samples were mixed by inverting the tubes and, subsequently, centrifuged at 4000 rpm (1500×g) for 10 min at 4° C. The supernatant was stored as plasma in 1.5 mL Eppendorf vials (Sarstedt, Germany) at −80° C. until off-line analysis.
At the end of the experiment, the animals were euthanized and terminal brain tissue was collected for visual histological verification of the probe positions.
PK was measured for GP-04, GP-05, GP-07, GP-R1 and GP-P1 in the PFC (prefrontal cortex) and plasma of wild type C56Bl/6 mice by CRO Brainsonline.

astrocytes [3] = assay: Intracellular glycogen quantification; type: cell-based, mouse; conditions: CDC54K hits; 10 uM, 3 h
astrocytes [4] = assay: Intracellular glycogen quantification; type: cell-based, mouse; conditions: Prestwick hits; 10 uM, 3 h
Experimental: For glycogen dosage, a protein dosage was first performed in order to assess whether harvested astrocytes from primary cell cultures yielded enough and equivalent amounts of proteins comparing each replicate, and to ensure that the obtained differences in glycogen quantities were due to drug action and not to inner protein quantities.
Astrocytes used for these dosages were previously grown in 6-well plates for 17 days and stimulated with Vehicle (DMSO) or drug of interest (1 μM to 100 μM) for 180 min, at 37° C. 5% CO2/95% air in D5030 complete medium. Medium was removed and replaced with 600 μl of 30 mM Tris HCl, and stored at −20° C.
Proteins were dosed using the micro BCA Protein Assay kit (Thermo Scientific), as described in the manufacturer's instructions. Briefly, thawed cells were sonicated and 5 μl aliquots were placed in a transparent 96-well plate, to which we added 25 μl 30 mM Tris HCl, 70 μl H2O and 100 μl of a BCA mix (made as described in manufacturer's guidelines). After a 120 min-incubation at 37° C., absorbance was measured with Safire 2 spectrophotometer at a wavelength of 562 nm, and protein quantities were determined from a standard curve of Bovine Serum Albumin (BSA).
Glycogen was quantified using a 250 μl-aliquot of the same stimulated, thawed, and sonicated cells. After an incubation period of 30 min at 90° C. and 400 rpm, 28 μl of an acetic acid/sodium acetate (both from Sigma) 0.1M pH 4.6 buffer was added to each aliquot, which was then separated in two. Each split aliquot received whether 5 μl of amyloglucosidase (Roche) or 5 μl H2O, and all cell solutions were incubated for 120 min in a shaking 37° C.-waterbath. After a centrifugation at 16'000 G for 5 min, 20 μl of supernatant were placed 96-well plate, to which 150 μl of a mix containing 0.67 mM ATP (Roche), 0.67 mM NADP (Roche), 1.8% hexokinase/glucose-6-phosphate dehydrogenase (Roche) and 0.1M Tris Buffer-HCl/3.3 mM magnesium (Fluka)/pH 8.1 buffer was added. Fluorescence was measured with Safire 2 spectrophotometer (340 nm excitation/440 nm emission). Glycogen concentration was obtained by subtracting glucose value of samples with amyloglucosidase to samples without amyloglucosidase, and were expressed relative to the amount of proteins previously determined.
Levels of intracellular glycogen in astrocytes were measured at 3 h after stimulation with 20 hits from the Prestwick library (10 μM each), as shown in FIG. 2. n=6-10; Ctrl pos. is glutamate (0.5 mM). Statistical analysis consisted in ANOVA followed by Fisher LSD post-hoc test for pair-wise comparisons.
Statistical analysis consisted in ANOVA followed by Fisher LSD post-hoc test for pair-wise comparisons.

[5] = test system: C57Bl/6 male and female mice; assay: In vivo chronic toxicity (28 days); conditions: 10 mg/kg per os once a day, 28 days
Experimental: During this period, clinical symptoms and weight were recorded.
Chronic toxicity was assessed.

SMILES | mobilization of intracellular glycogen (primary astrocytes) | levels in the PFC [2] | other results
CCn1nccc1-c1csc(S(=O)(=O)Nc2ccc(Cl)cc2F)c1 [L924-1031] | significantly enhance the mobilization of intracellular glycogen |  | 
COc1cc(C)c(Cl)cc1S(=O)(=O)NCc1ccncc1 [T5580243] |  | at therapeutic range (100 nM to 1 uM) and sustained over several hours | cerebral lactate (AUC ratio vs vehicle) ([1]; 100 mg/kg per os): Significant increase
COc1ccc(Nc2nc(N3CCOCC3)c3ccccc3n2)cc1.Cl [T0508-5190] | significantly enhance the mobilization of intracellular glycogen |  | Glycogen (statistical significance of glycogen degradation) (astrocytes [3]): ** (**p<0.01)
CCc1nc(-c2csc(S(=O)(=O)NCc3ccc4c(c3)OCO4)c2)no1 [L287-0468] | significantly enhance the mobilization of intracellular glycogen |  | 
c1ccc2c(c1)CCN(c1ncnc3sccc13)C2 [T0517-8250] | significantly enhance the mobilization of intracellular glycogen |  | 
O=C1CCCN1c1ccc(S(=O)(=O)Nc2cccc(/C=C/c3ccccn3)c2)cc1 [T5644989] | significantly enhance the mobilization of intracellular glycogen |  | 
Cc1ccccc1NC(=O)C1CCCN(c2ncnc3oc(C)c(C)c23)C1 (centres unmarked) [F228-0422] | significantly enhance the mobilization of intracellular glycogen |  | 
N=C(N)N1CCc2ccccc2C1 [Debrisoquin sulfate] |  | at therapeutic range (100 nM to 1 uM) and sustained over several hours | Glycogen (statistical significance of glycogen degradation) (astrocytes [4]): **** (****p<0.0001); cerebral lactate (AUC ratio vs vehicle) ([1]; 10 mg/kg per os): Significant increase
C[N+]1(C)CCC(=C(c2ccccc2)c2ccccc2)CC1 [Diphemanil methylsulfate] |  | at therapeutic range (100 nM to 1 uM) and sustained over several hours | Glycogen (statistical significance of glycogen degradation) (astrocytes [4]): **** (****p<0.0001); cerebral lactate (AUC ratio vs vehicle) ([1]; 10 mg/kg per os): Significant increase; chronic toxicity (toxic or safe) [5]: safe
CC(=O)N1CCc2sc(S(=O)(=O)N3CCN(c4ccccc4C)CC3)cc2C1 [P025-0159] | significantly enhance the mobilization of intracellular glycogen | need chemical improvement to reach their target at therapeutic dose in the brain | cerebral lactate (AUC ratio vs vehicle) ([1]; 100 mg/kg per os): Significant increase
COc1cccc(CNS(=O)(=O)c2ccc3c(c2)CCCN3C(C)=O)c1 [T5967389] |  |  | Glycogen (statistical significance of glycogen degradation) (astrocytes [3]): * (*p<0.05)
N#Cc1ccc(C(=O)N2CCC(Nc3ncnc4c3CCC4)C2)cc1 (centres unmarked) [T636-2387] | significantly enhance the mobilization of intracellular glycogen |  | cerebral lactate (AUC ratio vs vehicle) ([1]; 100 mg/kg per os): Significant increase
Cc1nc2ccc(NS(=O)(=O)c3cccc(F)c3)cc2s1 [T6937001] | significantly enhance the mobilization of intracellular glycogen |  | 
